# Assay results reported in patent publication US20140343000A1 (priority 2011, published 2014).
# Structures can show the parent of a compound that is named as a salt.
# Tested on: recombinant NL4-3 virus (Renilla luciferase in nef, Gag P373S; NLRluc) in MT-2 cells
# Assay: whole plant or invertebrate
# Assay type: cell-based, HIV
# Settings: Renilla, NL43
# Procedure, shortened: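 Cells grown in serum-supplemented RPMI were exposed to graded inhibitor concentrations during a 4-5 day infection. Antiviral effect was then derived from luminescence after adding a combined lysis and dual-luciferase substrate mixture to each well.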
row,SMILES,EC50
1,"C=C(C)[C@@H]1CC[C@]2(NCCNc3cccnn3)CC[C@]3(C)[C@H](CC[C@@H]4[C@@]5(C)CC=C(c6ccc(C(=O)O)cc6)C(C)(C)[C@@H]5CC[C@]43C)[C@@H]12 [Example 200, 4-((1R,3aS,5aR,5bR,7aR,11aS,11bR,13aR,13bR)-5a,5b,8,8,11a-pentamethyl-1-(prop-1-en-2-yl)-3a-(2-(pyridazin-3-ylamino)ethylamino)-2,3,3a,4,5,5a,5b,6,7,7a,8,11,11a,11b,12,13,13a,13b-octadecahydro-1H-cyclopenta[a]chrysen-9-yl)benzoic acid]",< 100 nM
2,"C=C(C)[C@@H]1CC[C@]2(NCCN3CCS(=O)(=O)CC3)CC[C@]3(C)[C@H](CC[C@@H]4[C@@]5(C)CC=C(c6ccc(C(=O)O[C@H]7O[C@H](C(=O)O)[C@@H](O)[C@H](O)[C@H]7O)cc6)C(C)(C)[C@@H]5CC[C@]43C)[C@@H]12 [Example B7B, (2S,3S,4S,5R,6R)-6-((4-((1R,3aS,5aR,5bR,7aR,11aS,11bR,13aR,13bR)-3a-((2-(1,1-dioxidothiomorpholino)ethyl)amino)-5a,5b,8,8,11a-pentamethyl-1-(prop-1-en-2-yl)-2,3,3a,4,5,5a,5b,6,7,7a,8,11,11a,11b,12,13,13a,13b-octadecahydro-1H-cyclopenta[a]chrysen-9-yl)benzoyl)oxy)-3,4,5-trihydroxytetrahydro-2H-pyran-2-carboxylic acid]",< 100 nM

# Same assay, conditions: Renilla, NL43, luciferase activity in cells infected for 4-5 days with NLRluc recombinants, serial dilutions of inhibitor; class symbols (key in Table 1); read-out: EC50
row,SMILES,EC50
1,"C=C(C)[C@@H]1CC[C@]2(NCCNc3ccc(S(C)(=O)=O)cn3)CC[C@]3(C)[C@H](CC[C@@H]4[C@@]5(C)CC=C(c6ccc(C(=O)O)cc6)C(C)(C)[C@@H]5CC[C@]43C)[C@@H]12 [Example 201, 4-((1R,3aS,5aR,5bR,7aR,11aS,11bR,13aR,13bR)-5a,5b,8,8,11a-pentamethyl-3a-(2-(5-(methylsulfonyl)pyridin-2-ylamino)ethylamino)-1-(prop-1-en-2-yl)-2,3,3a,4,5,5a,5b,6,7,7a,8,11,11a,11b,12,13,13a,13b-octadecahydro-1H-cyclopenta[a]chrysen-9-yl)benzoic acid]",< 100 nM
2,"C=C(C)[C@@H]1CC[C@]2(N)CC[C@]3(C)[C@H](CC[C@@H]4[C@@]5(C)CC=C(c6ccc(C(=O)O)c(F)c6)C(C)(C)[C@@H]5CC[C@]43C)[C@@H]12 [Example A1, 4-((1R,3aS,5aR,5bR,7aR,11aS,11bR,13aR,13bR)-3a-amino-5a,5b,8,8,11a-pentamethyl-1-(prop-1-en-2-yl)-2,3,3a,4,5,5a,5b,6,7,7a,8,11,11a,11b,12,13,13a,13b-octadecahydro-1H-cyclopenta[a]chrysen-9-yl)-2-fluorobenzoic acid]",< 100 nM
3,"C=C(C)[C@@H]1CC[C@]2(NCCN3CCS(=O)(=O)CC3)CC[C@]3(C)[C@H](CC[C@@H]4[C@@]5(C)CC=C(c6ccc(C(=O)O)c(F)c6)C(C)(C)[C@@H]5CC[C@]43C)[C@@H]12 [Example A2, benzoic acid, 4-[(1R,3aS,5aR,5bR,7aR,11aS,11bR,13aR,13bR)-3a-[[2-(1,1-dioxido-4-thiomorpholinyl)ethyl]amino]-2,3,3a,4,5,5a,5b,6,7,7a,8,11,11a,11b,12,13,13a,13b-octadecahydro-5a,5b,8,8,11a-pentamethyl-1-(1-methylethenyl)-1H-cyclopenta[a]chrysen-9-yl]-2-fluoro-, HCl]",< 100 nM
4,"C=C(C)[C@@H]1CC[C@]2(NCCN3CCOCC3)CC[C@]3(C)[C@H](CC[C@@H]4[C@@]5(C)CC=C(c6ccc(C(=O)O)c(F)c6)C(C)(C)[C@@H]5CC[C@]43C)[C@@H]12 [Example A3, 2-fluoro-4-((1R,3aS,5aR,5bR,7aR,11aS,11bR,13aR,13bR)-5a,5b,8,8,11a-pentamethyl-3a-(2-morpholinoethylamino)-1-(prop-1-en-2-yl)-2,3,3a,4,5,5a,5b,6,7,7a,8,11,11a,11b,12,13,13a,13b-octadecahydro-1H-cyclopenta[a]chrysen-9-yl)benzoic acid]",< 100 nM
5,"C=C(C)[C@@H]1CC[C@]2(NCCN3CCCC3=O)CC[C@]3(C)[C@H](CC[C@@H]4[C@@]5(C)CC=C(c6ccc(C(=O)O)c(F)c6)C(C)(C)[C@@H]5CC[C@]43C)[C@@H]12 [Example A4, 2-fluoro-4-((1R,3aS,5aR,5bR,7aR,11aS,11bR,13aR,13bR)-5a,5b,8,8,11a-pentamethyl-3a-(2-(2-oxopyrrolidin-1-yl)ethylamino)-1-(prop-1-en-2-yl)-2,3,3a,4,5,5a,5b,6,7,7a,8,11,11a,11b,12,13,13a,13b-octadecahydro-1H-cyclopenta[a]chrysen-9-yl)benzoic acid]",< 100 nM
6,"C=C(C)[C@@H]1CC[C@]2(NCCCN3CCCC3=O)CC[C@]3(C)[C@H](CC[C@@H]4[C@@]5(C)CC=C(c6ccc(C(=O)O)c(F)c6)C(C)(C)[C@@H]5CC[C@]43C)[C@@H]12 [Example A5, 2-fluoro-4-((1R,3aS,5aR,5bR,7aR,11aS,11bR,13aR,13bR)-5a,5b,8,8,11a-pentamethyl-3a-(3-(2-oxopyrrolidin-1-yl)propylamino)-1-(prop-1-en-2-yl)-2,3,3a,4,5,5a,5b,6,7,7a,8,11,11a,11b,12,13,13a,13b-octadecahydro-1H-cyclopenta[a]chrysen-9-yl)benzoic acid]",< 100 nM
7,"C=C(C)[C@@H]1CC[C@]2(NCCCN3CCS(=O)(=O)CC3)CC[C@]3(C)[C@H](CC[C@@H]4[C@@]5(C)CC=C(c6ccc(C(=O)O)c(F)c6)C(C)(C)[C@@H]5CC[C@]43C)[C@@H]12 [Example A6, benzoic acid, 4-[(1R,3aS,5aR,5bR,7aR,11aS,11bR,13aR,13bR)-3a-[[3-(1,1-dioxido-4-thiomorpholinyl)propyl]amino]-2,3,3a,4,5,5a,5b,6,7,7a,8,11,11a,11b,12,13,13a,13b-octadecahydro-5a,5b,8,8,11a-pentamethyl-1-(1-methylethenyl)-1H-cyclopenta[a]chrysen-9-yl]-2-fluoro-]",< 100 nM
8,C=C(C)[C@@H]1CC[C@]2(NCCN3CCN(S(C)(=O)=O)CC3)CC[C@]3(C)[C@H](CC[C@@H]4[C@@]5(C)CC=C(c6ccc(C(=O)O)c(F)c6)C(C)(C)[C@@H]5CC[C@]43C)[C@@H]12 [Example A8],< 100 nM
9,"C=C(C)[C@@H]1CC[C@]2(N)CC[C@]3(C)[C@H](CC[C@@H]4[C@@]5(C)CC=C(c6ccc(C(=O)O)s6)C(C)(C)[C@@H]5CC[C@]43C)[C@@H]12 [Example B1, 5-((1R,3aS,5aR,5bR,7aR,11aS,11bR,13aR,13bR)-3a-amino-5a,5b,8,8,11a-pentamethyl-1-(prop-1-en-2-yl)-2,3,3a,4,5,5a,5b,6,7,7a,8,11,11a,11b,12,13,13a,13b-octadecahydro-1H-cyclopenta[a]chrysen-9-yl)thiophene-2-carboxylic acid]",< 100 nM
10,"CC(C)[C@@H]1CC[C@]2(NCCN3CCS(=O)(=O)CC3)CC[C@]3(C)[C@H](CC[C@@H]4[C@@]5(C)CC[C@H](c6ccc(C(=O)O)cc6)C(C)(C)[C@@H]5CC[C@]43C)[C@@H]12 [Example B2, 4-((1S,3aS,5aR,5bR,7aS,9S,11aS,11bR,13aR,13bR)-3a-((2-(1,1-dioxidothiomorpholino)ethyl)amino)-1-isopropyl-5a,5b,8,8,11a-pentamethylicosahydro-1H-cyclopenta[a]chrysen-9-yl)benzoic acid]",< 100 nM
11,"CC(C)[C@@H]1CC[C@]2(N)CC[C@]3(C)[C@H](CC[C@@H]4[C@@]5(C)CC[C@H](c6ccc(C(=O)O)cc6)C(C)(C)[C@@H]5CC[C@]43C)[C@@H]12 [Example B3, 4-((1S,3aS,5aR,5bR,7aS,9S,11aS,11bR,13aR,13bR)-3a-amino-1-isopropyl-5a,5b,8,8,11a-pentamethylicosahydro-1H-cyclopenta[a]chrysen-9-yl)benzoic acid]",< 100 nM
12,CC(C)[C@@H]1CC[C@]2(NCCN3CCOCC3)CC[C@]3(C)[C@H](CC[C@@H]4[C@@]5(C)CC[C@H](c6ccc(C(=O)O)cc6)C(C)(C)[C@@H]5CC[C@]43C)[C@@H]12 [Example B4],< 100 nM
13,"CC(C)[C@@H]1CC[C@]2(NCCN(C)C)CC[C@]3(C)[C@H](CC[C@@H]4[C@@]5(C)CC[C@H](c6ccc(C(=O)O)cc6)C(C)(C)[C@@H]5CC[C@]43C)[C@@H]12 [Example B5, 4-((1S,3aS,5aR,5bR,7aS,9S,11aS,11bR,13aR,13bR)-3a-((2-(dimethylamino)ethyl)amino)-1-isopropyl-5a,5b,8,8,11a-pentamethylicosahydro-1H-cyclopenta[a]chrysen-9-yl)benzoic acid]",< 100 nM
14,"CC(C)[C@@H]1CC[C@]2(N(CCN(C)C)CCN(C)C)CC[C@]3(C)[C@H](CC[C@@H]4[C@@]5(C)CC[C@H](c6ccc(C(=O)O)cc6)C(C)(C)[C@@H]5CC[C@]43C)[C@@H]12 [Example B6, 4-((1S,3aS,5aR,5bR,7aS,9S,11aS,11bR,13aR,13bR)-3a-(bis(2-(dimethylamino)ethyl)amino)-1-isopropyl-5a,5b,8,8,11a-pentamethylicosahydro-1H-cyclopenta[a]chrysen-9-yl)benzoic acid]",< 100 nM
15,"C=C(C)[C@@H]1CC[C@]2(NCCN3CCS(=O)(=O)CC3)CC[C@]3(C)[C@H](CC[C@@H]4[C@@]5(C)CC=C(c6ccc(C(=O)O[C@H]7O[C@H](C(=O)OCc8ccccc8)[C@@H](O)[C@H](O)[C@H]7O)cc6)C(C)(C)[C@@H]5CC[C@]43C)[C@@H]12 [Example B7A, (2S,3S,4S,5R,6R)-benzyl 6-((4-((1R,3aS,5aR,5bR,7aR,11aS,11bR,13aR,13bR)-3a-((2-(1,1-dioxidothiomorpholino)ethyl)amino)-5a,5b,8,8,11a-pentamethyl-1-(prop-1-en-2-yl)-2,3,3a,4,5,5a,5b,6,7,7a,8,11,11a,11b,12,13,13a,13b-octadecahydro-1H-cyclopenta[a]chrysen-9-yl)benzoyl)oxy)-3,4,5-trihydroxytetrahydro-2H-pyran-2-carboxylate]",< 100 nM
